In patent publication EP1282414B1, “FELBAMATE DERIVED COMPOUNDS FOR TREATING NEUROPATHIC PAIN” (University of Virginia Patent Foundation, priority 2000, dated 2001):

How the values were obtained:
[1] = tested on: MES-induced seizure spread; assay: Maximal Electroshock Seizure (MES) test, mice i.p.; type: in vivo; conditions: for MES, number of animals protected / total number of animals tested: mice i.p.
Excerpt: (§1) The fluoro derivatives synthesized were submitted to the National Institute of Neurological Disorders and Stroke (NINDS) for evaluation in a standard panel of assays. Two convulsant tests (MES and scMET), and a toxicity screen (rotorod in mice, positional sense and gait in rats) were employed for evaluating the compounds activity as neuroprotecting agents. These testing procedures are described in detail in Molecular and Cellular Targets for Anti-epileptic Drugs, eds. G. Avanzini, G. Regesta, P. Tanganelli, M. Avoli, 1997, John Libbey & Company Ltd, pp 191-198. The felbamate derivatives were evaluated for anticonvulsant activity following intraperitoneal (i.p.) administration in mice and oral administration in rats.
The MES test is a model for generalized tonic-clonic seizures and is used to identify compounds which prevent seizure spread. The behavioral and electrographic seizures generated in this model are consistent with the human disorder. In the MES test, an electrical stimulus of 0.2 s in duration (50 mA in mice and 150 mA in rat at 60Hz) was delivered via corneal electrodes primed with an electrolyte solution containing an anesthetic agent. […] Rats were tested at time intervals between 0.25 and 4 hours following a standard oral dose of 30 mg/kg. Abolition of the hindlimb tonic extensor component indicates the test compound's ability to inhibit MES-induced seizure spread.
(§2) For the MES and scMET tests the data is presented in the form of the number of animals protected by the administered compound / total number of animals tested. […] Qualitative data was obtained for fluoro felbamate 12 (Tables 1 and 2A), fluoro monocarbamate felbamate 13 (Tables 1 and 2B), and fluorodioxo 16 (Tables 1 and 2C) and for cyclic felbamate 21 (Tables 5 and 6B) and cyclic monocarbamate 22 (Tables 5 and 6A). More extensive quantitative data was also obtained for fluoro felbamate 12 in mice (Table 3) and rats (Table 4).

pentylenetetrazol = assay: Subcutaneous Metrazol seizure test (scMET), mice i.p.; type: in vivo, Carworth Farms No. 1 mice; conditions: mice i.p.
Excerpt: as §1
This is a model that primarily identifies compounds that raise seizure threshold. With some minor exceptions, the pharmacological profile of the scMET seizure model is consistent with the human condition. The scMET test utilizes a dose of pentylenetetrazol (85 mg/kg in Carworth Farms No. 1 mice and 70 mg/kg in Sprague-Dawley rats) that induces clonic seizures lasting for a period of at least five seconds in 97 % (CD97) of animals tested. At the anticipated time of testing the convulsant is administered subcutaneously. The test compound is administered intraperitoneally in mice and orally in rats. Animals are observed over a 30 minute period. Absence of clonic spasms in the observed time period indicates a compound's ability to abolish the effect of pentylenetetrazol on seizure threshold.
as §2

mice = assay: Minimal neurotoxicity (TOX), rotorod test, mice i.p.; type: in vivo; conditions: mice i.p.
Excerpt: as §1, with “G. Avanzini, G. Regesta, P. Tanganelli, M. Avoli, 1997, John Libbey & Company Ltd, pp 191-198.” left out, “rats. […]” for “rats.”

[2] = tested on: MES-induced seizure spread; assay: Maximal Electroshock Seizure (MES) test, rats p.o.; type: in vivo, rat; conditions: for MES, number of animals protected / total number of animals tested: rat p.o., 30 mg/kg; for anti-seizure activity (in words): rats
Excerpt: as §1
The MES test is a model for generalized tonic-clonic seizures and is used to identify compounds which prevent seizure spread. The behavioral and electrographic seizures generated in this model are consistent with the human disorder. In the MES test, an electrical stimulus of 0.2 s in duration (50 mA in mice and 150 mA in rat at 60Hz) was delivered via corneal electrodes primed with an electrolyte solution containing an anesthetic agent. Mice were tested at 30 minutes and 4 hours following doses of 30, 100 and 300 mg/kg of test compound. Rats were tested at time intervals between 0.25 and 4 hours following a standard oral dose of 30 mg/kg. Abolition of the hindlimb tonic extensor component indicates the test compound's ability to inhibit MES-induced seizure spread.
as §2

rats = assay: Minimal neurotoxicity (TOX), positional sense and gait and stance tests, rats p.o.; type: in vivo; conditions: rat p.o., 30 mg/kg
Excerpt: as §1, with “G. Avanzini, G. Regesta, P. Tanganelli, M. Avoli, 1997, John Libbey & Company Ltd, pp 191-198.” left out
Rats are examined for behavioral toxicity by the positional sense test and a gait and stance test. […] In the gait and stance test, neurotoxicity is indicated by a circular or zigzag gait, ataxia, abnormal spread of the legs, abnormal posture, tremor hyperactivity, lack of exploratory behavior, somnolence, stupor or catalepsy. […]

| SMILES | MES, number of animals protected / total number of animals tested ([1]; 30 mg/kg, 0.5h) | MES, number of animals protected / total number of animals tested ([1]; 30 mg/kg, 4.0h) | MES, number of animals protected / total number of animals tested ([1]; 100 mg/kg, 0.5h) | MES, number of animals protected / total number of animals tested ([1]; 300 mg/kg, 0.5h) | ScMET, number of animals protected / total number of animals tested (pentylenetetrazol; 30 mg/kg, 0.5h) | ScMET, number of animals protected / total number of animals tested (pentylenetetrazol; 100 mg/kg, 0.5h) | ScMET, number of animals protected / total number of animals tested (pentylenetetrazol; 300 mg/kg, 0.5h) | TOX, number of animals exhibiting toxic effects / total number of animals tested (mice; 30 mg/kg, 0.5h) | TOX, number of animals exhibiting toxic effects / total number of animals tested (mice; 100 mg/kg, 0.5h) | TOX, number of animals exhibiting toxic effects / total number of animals tested (mice; 300 mg/kg, 0.5h) | MES, number of animals protected / total number of animals tested ([2]; 0.25h) | MES, number of animals protected / total number of animals tested ([2]; 0.5h) | MES, number of animals protected / total number of animals tested ([2]; 1.0h) | MES, number of animals protected / total number of animals tested ([2]; 2.0h) | MES, number of animals protected / total number of animals tested ([2]; 4.0h) | TOX, number of animals exhibiting toxic effects / total number of animals tested (rats; 0.25h) | TOX, number of animals exhibiting toxic effects / total number of animals tested (rats; 0.5h) | TOX, number of animals exhibiting toxic effects / total number of animals tested (rats; 1.0h) | TOX, number of animals exhibiting toxic effects / total number of animals tested (rats; 2.0h) | TOX, number of animals exhibiting toxic effects / total number of animals tested (rats; 4.0h) | also measured |
| --- | --- | --- | --- | --- | --- | --- | --- | --- | --- | --- | --- | --- | --- | --- | --- | --- | --- | --- | --- | --- | --- |
| O=C1NC(=O)C(F)(c2ccccc2)CO1 (stereo not shown) [fluoro dioxo, 5-Fluoro-5-phenyl-1,3-oxazinane-2,4-dione] | 0/1 | 0/1 | 0/3 | 0/1 | 0/1 | 0/1 | 0/1 | 0/4 | 0/8 | 1/4 | 0/4 | 1/4 | 1/4 | 1/4 | 2/4 | 0/4 | 0/4 | 0/4 | 0/4 | 0/4 | anti-seizure activity (in words) ([1]; mice): inactive; MES, number of animals protected / total number of animals tested ([1]; 100 mg/kg, 4.0h): 0/3; MES, number of animals protected / total number of animals tested ([1]; 300 mg/kg, 4.0h): 0/1; ScMET, number of animals protected / total number of animals tested (pentylenetetrazol; 30 mg/kg, 4.0h): 0/1; ScMET, number of animals protected / total number of animals tested (pentylenetetrazol; 100 mg/kg, 4.0h): 0/1; ScMET, number of animals protected / total number of animals tested (pentylenetetrazol; 300 mg/kg, 4.0h): 0/1; TOX, number of animals exhibiting toxic effects / total number of animals tested (mice; 30 mg/kg, 4.0h): 0/2; TOX, number of animals exhibiting toxic effects / total number of animals tested (mice; 100 mg/kg, 4.0h): 0/4; TOX, number of animals exhibiting toxic effects / total number of animals tested (mice; 300 mg/kg, 4.0h): 0/2; anti-seizure activity (in words) [2]: strong anti-seizure activity |
| O=C1NC(O)C(c2ccccc2)CO1 (stereo not shown) [Cyclic MCF] | 0/1 |  | 0/3 | 1/1 | 0/1 | 2/5 | 2/5 | 0/4 | 0/8 | 0/4 | 0/4 | 0/4 | 1/4 | 2/4 | 3/4 | 0/4 | 0/4 | 0/4 | 0/4 | 0/4 | MES, number of animals protected / total number of animals tested ([1]; 30 mg/kg, 2.0h): 0/1; MES, number of animals protected / total number of animals tested ([1]; 100 mg/kg, 2.0h): 2/3; MES, number of animals protected / total number of animals tested ([1]; 300 mg/kg, 2.0h): 1/1; ScMET, number of animals protected / total number of animals tested (pentylenetetrazol; 30 mg/kg, 2.0h): 0/1; ScMET, number of animals protected / total number of animals tested (pentylenetetrazol; 100 mg/kg, 2.0h): 0/1; ScMET, number of animals protected / total number of animals tested (pentylenetetrazol; 300 mg/kg, 2.0h): 0/1; TOX, number of animals exhibiting toxic effects / total number of animals tested (mice; 30 mg/kg, 2.0h): 0/2; TOX, number of animals exhibiting toxic effects / total number of animals tested (mice; 100 mg/kg, 2.0h): 0/4; TOX, number of animals exhibiting toxic effects / total number of animals tested (mice; 300 mg/kg, 2.0h): 0/2; anti-seizure activity (in words) [2]: potent activity |
| NC(=O)OCC(F)(CO)c1ccccc1 (stereo not shown) [fluoro monocarbamate felbamate, 2-Fluoro-2-phenyl-1,3-propanediol monocarbamate] | 0/1 | 0/1 | 2/3 | 1/1 | 0/1 | 0/1 | 1/1 | 0/4 | 3/8 | 2/4 | 0/4 | 3/4 | 0/4 | 1/4 | 0/4 | 0/4 | 0/4 | 0/4 | 0/4 | 0/4 | MES, number of animals protected / total number of animals tested ([1]; 100 mg/kg, 4.0h): 0/3; MES, number of animals protected / total number of animals tested ([1]; 300 mg/kg, 4.0h): 0/1; MES protection (in words) ([1]; mice, 100 mg/kg): moderate MES protection; ScMET, number of animals protected / total number of animals tested (pentylenetetrazol; 30 mg/kg, 4.0h): 0/1; ScMET, number of animals protected / total number of animals tested (pentylenetetrazol; 100 mg/kg, 4.0h): 0/1; ScMET, number of animals protected / total number of animals tested (pentylenetetrazol; 300 mg/kg, 4.0h): 0/1; TOX, number of animals exhibiting toxic effects / total number of animals tested (mice; 30 mg/kg, 4.0h): 0/2; TOX, number of animals exhibiting toxic effects / total number of animals tested (mice; 100 mg/kg, 4.0h): 0/4; TOX, number of animals exhibiting toxic effects / total number of animals tested (mice; 300 mg/kg, 4.0h): 0/2 |
